# Experimental data published in paper PMC8686256, “DZNep promotes mouse bone defect healing via enhancing both osteogenesis and osteoclastogenesis” (Stem Cell Research & Therapy, 2021).
# Legend:
# Type in all cases: cell-based, mouse
# BMMs = assay: Bone resorption assay on hydroxyapatite-coated Osteo Assay plates; settings: 25 nM, compared with the control group
# Procedure: To explore the effect of DZNep on the function of osteoclast, BMMs on complete α-MEM were seeded at the density of 1 × 10^4 cells/well, in triplicate, on the Osteo Assay Surface plates (Corning, NY, USA). After thirty-six hours, the culture medium was replaced by complete α-MEM, with RANKL (50 ng/mL), and various doses of DZNep (control, 6.25, 12.5, and 25 nM). For EZH2 gene knockdown studies, the cells were transfected with virus constructed of different EZH2 short hairpin RNA (shRNA) and negative control shRNA by mixed with polybrene (final concentration of 10ug/ml) for 48 h. The transfection mixture was then replaced by complete α-MEM added with puromycin for 24 h, and the survived BMMs were seeded into a 96-well plate, in triplicate, at a density of 1 × 10^4 cells/well. The medium needs to be constantly replaced until the osteoclast had matured for 1 day. For Foxc1 inhibition experiment, the cells were separately transfected with negative control siRNA, negative control siRNA with DZNep, and Foxc1 small interfering RNA (siRNA) with DZNep and by mixed with transfection reagent and osteoclast culture medium. The transfection mixture was then replaced every 2 days until the osteoclast had been observed for 2 days. […] The total area of resorption was photographed and then calculated by ImageJ software (NIH, Bethesda, MD, USA).
# MAPKs signaling pathways = assay: Western blotting of MAPKs signaling pathways; settings: RAW264.7, 25 nM pretreatment, vs control
# Procedure: (§1) To explore the variation of the proteins on long-term activated signaling, BMMs were cultured in α-MEM containing M-CSF (30 ng/ml) and RANKL (50 ng/ml) at a density of 2 × 10^5 cells/well on 6-well plates. After 24 h, the BMMs were treated with or without 25 nM DZNep for 0, 1, 3, and 5 days, and total protein was obtained, respectively, on these specific time points. To determine the effect of DZNep on the protein of short-time activated phosphorylated, RAW264.7 cells were cultured in α-MEM at a density of 5 × 10^5 cells/well on 6-well plates. One day later, the cells were treated with the serum-free α-MEM in the presence or absence of DZNEP for 3 hand then stimulated with 50 ng/mL RANKL for 0, 10, 20, 30, and 60 min. To determine the efficiency of EZH2 shRna, BMMs were cultured in α-MEM at a density of 5 × 10^5 cells/well on 6-well plates. One day later, the cells were treated with negative control shRNA or different EZH2 shRNA for 2 days. To determine the efficiency of Foxc1 siRna, BMMs were cultured in α-MEM at a density of 5 × 10^5 cells/well on 6-well plates. […] After TBST wash for 3 times, the secondary fluorescence antibodies were incubated without light for 1 h at room temperature and the reactivity was visualized by using Odyssey V3.0 image scanning (Li-COR. Inc., Lincoln, NE, USA). […]
# EZH2 and H3K27me3 = assay: Western blotting of EZH2 and H3K27me3 in BMMs; settings: 25 nM; 0, 1, 3, 5 days with RANKL, vs control
# Procedure: as §1
# NF-κB signaling pathway = assay: Western blotting and immunofluorescence of NF-κB signaling pathway
# Procedure: as §1
compound,measurement,setting,value
"Nc1nccc2c1ncn2C1C=C(CO)C(O)C1O (centres unmarked) [DZNep, 3-Deazaneplanocin]",bone resorption area,BMMs,more than 30%
same,"phosphorylation of JNK, p38, and ERK",MAPKs signaling pathways,comparable
same,EZH2 and H3K27me3 expression in BMMs,EZH2 and H3K27me3,decreased at a time manner
same,NF-κB nuclear translocation,"NF-κB signaling pathway; 25 nM pretreatment, then RANKL",enhancement of NF-κB nuclear translocation
same,"phosphorylation of IKK, IκB, and p65","NF-κB signaling pathway; RAW264.7, 25 nM pretreatment, RANKL for specific times",further promoted over time
